Measured values from patent US20110173718A1, “HERBICIDE TOLERANT PLANTS” (SYNGENTA CROP PROTECTION, INC., priority 2008, published 2011).

Experiments:
[1] = biological target: T1, Chlamydomonas HST (Chlamydomonas reinhardtii, UniProt A1JHN0); assay: HST assay (TLC, MFBQ formed), recombinant Chlamydomonas HST in E. coli membranes; assay type: biochemical; settings: TLC, estimated amount of MFBQ formed, relative to controls
T1 construct: GST (N); made in house; host or cells: E. coli (BL21A1 / BL21DE3), membrane fraction
T1 sequence (A1JHN0 51-370): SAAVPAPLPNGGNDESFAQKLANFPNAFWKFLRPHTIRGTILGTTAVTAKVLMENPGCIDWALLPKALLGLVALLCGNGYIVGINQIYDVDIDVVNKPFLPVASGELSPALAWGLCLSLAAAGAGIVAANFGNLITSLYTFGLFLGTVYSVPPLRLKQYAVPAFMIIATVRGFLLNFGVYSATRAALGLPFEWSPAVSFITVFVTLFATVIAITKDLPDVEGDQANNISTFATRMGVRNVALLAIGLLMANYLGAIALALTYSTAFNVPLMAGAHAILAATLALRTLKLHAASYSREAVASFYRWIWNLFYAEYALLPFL
Method: Alternatively, Arabidopsis and Chlamydomonas mature HST coding sequences are cloned as GST N-terminal fusion enzymes and expressed in E. coli.
E. coli. BL21A1 cells expressing mature Arabidopsis or Chlamydonionas HST as a GST N-terminal fusion proteins are grown, harvested, broken and membrane fractions expressing HST produced.
For example, 1 ng of recombinant DNA is used to transform BL21DE3 cells to obtain a plateful of individual colonies. One of these colonies is picked and used to inoculate an overnight culture of 100 ml of Luria Broth (LB) supplemented with 50 ug/ml of kanamycin at final concentration, grown at 37° C. with shaking at 220 rpm. Next morning, 10 mls of the overnight culture is used to inoculate 11 of fresh sterile LB supplemented with 50 ug/ml of kanamycin at final concentration, grown at 37° C. with shaking at 220 rpm until the OD reached 0.6 at 600 nm, induced with the addition of 0.1 mM IPTG and left to induce at 15° C. overnight. The cells are harvested by centrifugation at 4600 rpm for 10 min at 4° C. and the pellet stored at −80° C. […] E. coli cell pellet is then resuspended in 25 ml of 50 mM Tris, pH 7.5 supplemented with Roche EDTA-free protease inhibitor tablet (one tablet in 200 mls of buffer). 10 ml of cells are lysed by sonication on ice. The resultant lysed cells are centrifuged at 3000 g for 10 min to pellet the cell nuclei/debris etc. 10 mls of supernatant is aspirated and centrifuged at 150,000 g for 60 min at 4° C. The pellet containing the membranes is resuspended in 2 ml of the above buffer. These samples are stored as 100 ul aliquots at −80° C., after being diluted with addition of glycerol to 50% v/v.
Prenyltransferase (HST) activities are measured by determining the prenylation rates of [U—^14C]homogentisate using farnesyl diphosphate (FDP) as prenyl donor. ^14C homogentisate is prepared from ^14C tyrosine using L amino acid oxidase and HPPD. For inhibitor testing, compounds are dissolved in dimethylsulfoxide (DMSO). DMSO added at up to 2% v/v has no effect on assays. Control assays contain DMSO at the same concentration as in inhibitor containing assays.
The recombinant Chlamydomonas HST expressed in E. coli membranes is assayed in standard reaction mixtures with 200 μM FDP and 100 μM ^14C-homogentisate (40 dpm/pmol) in 50 mM Tricine-NaOH pH 8.5, 20 mM MgCl2. Assays are started with the addition of enzyme and run for ˜20 min at 28° C.
Recombinant Arabidopsis and Rice HSTs are expressed in insect cells. Assays are run as for Chlamydomonas HST except that assay temperature is 27° C. Assays are stopped with 300 ul of solvent mix (1:2, Chloroform:Methanol) and 100 ul of 0.5% NaCl, agitated/mixed and spun at 13,000 rpm in a benchtop eppendorf centrifuge for 5 minutes. 80 ul of the lower phase extract is loaded onto a TLC plate (silica Gel 60, 20 cm×20 cm) FLA3000 system and run for 35 minutes in dichloromethane. The radioactivity is quantified using a Fuji Phosphoimager and band intensity integrated as quantitative measure of product amount. The bands corresponding to oxidised and reduced 2-methyl-6-farnesyl-1,4-benzoquinol (MFBQ) are identified and the total of the two (oxidised and reduced) band intensities is calculated in order to estimate the total amount of MFBQ product formation. Specific activities of 8 pmol MFBQ min^−1 mg^−1 protein (23 pmol) and 7 pmol MFBQ min^−1 mg^−1 protein (14 pmol) are, for example, estimated for the GST-fusion truncated Arabidopsis HST gene (SEQ ID # 3) expressed in membranes from insect cells 4 days and 5 days after transfection respectively. Similar results are noted from past literature on E. coli expressed Arabidopsis HST. Activity from the insect cell expressed GST-fusion truncated rice HST (SEQ ID# 4) is similar. Expression of the non-truncated HST coding sequences as GST fusions also gives HST activity. […]

[2] = system: wild-type (WT) Samsun tobacco; assay: Glasshouse spray test, wild-type tobacco; assay type: in vivo; settings: 500 g/ha; 14 DAT; WT control, reps
Method: Rooted transgenic T0 plantlets are transferred from agar and potted into 50% peat, 50% John Innes soil no 3 or, for example, MetroMix® 380 soil (Sun Gro Horticulture, Bellevue, Wash.) with slow-release fertilizer in 3 inch round or 4 inch square pots and left regularly watered to establish for 8-12 d in the glass house. Glass house conditions are about 24-27° C. day; 18-21° C. night and approximately a 14 h (or longer in UK summer) photoperiod. Humidity is ˜65% and light levels up to 2000 μmol/m^2 at bench level. Once new tissue emerges and plants they have reached the 2-4 leaf stage some of the clones from each event are sprayed with test chemicals dissolved in water with 0.2-0.25% X-77 surfactant and sprayed from a boom on a suitable track sprayer moving at 2 mph in a DeVries spray chamber with the nozzle about 2 inches from the plant tops. Spray volume is suitably 25 gallons per acre or, for example, […].
Test chemicals are, for example, compound 2.3 at 500 g/ha. At the same time that transgenic plants are sprayed so too are w/t Samsun tobacco plants grown from seed as well as non-transgenic plants regenerated from tissue culture and non-transgenic tissue culture escapes. Damage is assessed versus unsprayed control plants of like size and development.
6 Seed from w/t Samsun tobacco and 8 T1 seed from events B8 and G9 are also planted out in 3 inch pots, grown on for 7 to 12 d and then, as described in the foregoing examples, the plantlets spray tested for resistance to various chemicals and assessed at 14 DAT. Chemicals are formulated in 0.2% X77 and sprayed at a spray volume of 200 l/ha.
Seed of wild-type tobacco plants, C2 tobacco plants and of the T1 progeny of a further Arabidopsis-HST expressing tobacco line, D2 were planted out in 3 inch pots, grown on, sprayed with compounds 1.1, 2.30 and 3.6 at the rates shown in table 5. Percent damage scores were assessed at 7 DAT. Aside from the presumptive non-transgenic segregants the D2 line containing the Arabidopis HST expression construct offered the highest level of tolerance to the two HST herbicides with the Psuedomonas HPPD, C2 line, offering only marginal tolerance under the conditions of this test.
Single copy events amongst the T1 plant lines are identified by their 3:1 segregation ratio (wrt kanamycin and or herbicide) and by quantitative RT-PCR. Seed from the thus selected T1 tobacco (var Samsun) lines are sown in 3 inch diameter pots containing 50% peat, 50% John Innes soil no 3. After growth to the 3 leaf stage, plants are sprayed, as described above, in order to test for herbicide tolerance relative to like-treated non-transgenic tobacco plants.
Control tobacco plants and transgenic T1 plants expressing either the Pseudomonas or the wheat HPPD gene are sprayed at 37, 111, 333 and 1000 g/ha rates of HST inhibitors and, for example, compound 2.3.
Plants are assessed and scored for % damage at 16 DAT.

[3] = system: Arabidopsis HST transgenic tobacco plants; assay: Glasshouse spray test, Arabidopsis HST transgenic tobacco; assay type: in vivo; settings: 500 g/ha, 14 DAT
Text: For example the Arabidopsis HST SEQ ID # 11 is cloned behind a double 35s CMV promoter sequence and a TMV translational enhancer sequence and in front of the 3′ terminator from the nos gene. This expression cassette is ligated into pMJB1 (described in WO98/20144) and then into pBIN19 and then transformed into Agrobacterium tuniqfaciens strains LBA4404 prior to plant transformation.
For example, the full length Arabidopsis HST seq ID # 11 is fused to the TMV translational enhancer sequence (SEQ ID #33) by overlapping PCR and, at the same time, 5′ XhoI site and a 3′KpnI site are added by PCR. Site-directed mutagenesis is performed to remove an internal XhoI site. The TMV/HPPD fusion is removed from the pBIN19 by digestion with XhoI/KpnI and is replaced by the TMV/HST fusion (SEQ ID #34). The TMV/HST fusion is now cloned behind a double 35s promoter and in front of the 3′ terminator from the nos gene. Again the modified pBIN19 vector (‘pBinAT HST’) is then transformed into Agrobacterium tumefaciens strain LBA4404.
A master plate of Agrobacterium tumefaciens containing the binary vector pBinAT HST (described above) or analogous binary vector comprising a different HST is used to inoculate 10 ml LB containing 100 mg/1 Rifampicin plus 50 mg/1 Kanamycin using a single bacterial colony. This is incubated overnight at 28° C. shaking at 200 rpm. This entire overnight culture is used to inoculate a 50 ml volume of LA (plus antibiotics). Again this is cultured overnight at 28° C. shaking at 200 rpm. The Agrobacterium cells are pelleted by centrifuging at 3000 rpm for 15 minutes then resuspended in MS medium with 30 g/1 sucrose, pH 5.9 to an OD ([…])=0.6. This suspension is dispensed in 25 ml aliquots into petri dishes.
Clonal micro-propagated tobacco shoot cultures are used to excise young (not yet fully expanded) leaves. The mid rib and outer leaf margins are removed and discarded, the remaining lamina is cut into 1 cm squares. These are transferred to the Agrobacterium suspension for 20 minutes. Explants are then removed, dabbed on sterile filter paper to remove excess suspension then transferred to NBM medium (MS medium, 30 g/1 sucrose, 1 mg/1 BAP, 0.1 mg/1 NAA, pH 5.9, solidified with 8 g/1 Plantagar), with the abaxial surface of each explant in contact with the medium. Approximately 7 explants are transferred per plate, which are then sealed then maintained in a lit incubator at 25° C., 16 hour photoperiod for 3 days.
Explants are then transferred to NBM medium containing 100 mg/1 Kanamycin plus antibiotics to prevent further growth of Agrobacterium (200 mg/1 timentin with 250 mg/1 carbenicillin). Further subculture on to this same medium is then performed every 2 weeks.
As shoots start to regenerate from the callusing leaf explants these are removed to Shoot elongation medium (MS medium, 30 g/1 sucrose, 8 g/1 Plantagar, 100 mg/1 Kanamycin, 200 mg/1 timentin, 250 mg/1 carbenicillin, pH 5.9). Stable transgenic plants readily root within 2 weeks. To provide multiple plants per event to ultimately allow more than one herbicide test per transgenic plant all rooting shoots are micropropagated to generate 3 or more rooted clones.
Putative transgenic plants that are rooting and show vigorous shoot growth on the medium incorporating Kanamycin are analysed by PCR using primers that amplified a 500 bp fragment within the Arabidopsis HST transgene.
Rooted transgenic T0 plantlets are transferred from agar and potted into 50% peat, 50% John Innes soil no 3 or, for example, MetroMix® 380 soil (Sun Gro Horticulture, Bellevue, Wash.) with slow-release fertilizer in 3 inch round or 4 inch square pots and left regularly watered to establish for 8-12 d in the glass house. Glass house conditions are about 24-27° C. day; 18-21° C. night and approximately a 14 h (or longer in UK summer) photoperiod. Humidity is ˜65% and light levels up to 2000 μmol/m^2 at bench level. […]

Compound	Chlamydomonas. HST % I at 10 ppm [1]	Chlamydomonas. HST % I at 100 ppm [1]	herbicide % damage [2]	herbicide % damage ([3]; T1 progeny of line B8, reps)	herbicide % damage ([3]; T1 progeny of line G9-2, reps)
Nc1nc[nH]n1 [Amitrole, reference compound]	0%	0%	–	–	–
CCNc1nc(Cl)nc(NC(C)C)n1 [Atrazine, reference compound]	–	–	100%	100%	100%
O=c1[nH]c2nccnc2c(O)c1-c1c(F)ccc(Br)c1Cl [Compound 2.1]	10%	40%	–	–	–
Cc1cc(C)c(-c2c(O)c3nccnc3n(C)c2=O)c(C)c1 [Compound 2.2]	70%	95%	–	–	–
O=c1[nH]c2nccnc2c(O)c1-c1ccccc1OC(F)(F)F [Compound 2.6]	5%	20%	–	–	–
O=c1[nH]c2nccnc2c(O)c1-c1c(F)ccc(F)c1Cl [Compound 2.7]	5%	20%	–	–	–
CN1CC(c2c(F)ccc(F)c2Cl)=C(O)c2ncccc21 [Compound 4.1]	0%	0%	–	–	–
